Assay type in all cases: functional
Experiment [1] deals with Nephotettix cincticeps. In words: Insecticidal activity against Nephotettix cincticeps (green rice leafhopper) third instar larvae in compound treated rice seedlings assessed as mortality at 62.5 ppm measured after 7 days. Particulars: 168 h.
The subject of experiment [2] is Tetranychus urticae. In words: Insecticidal activity against Tetranychus urticae (two-spotted spider mite) eggs in compound treated kidney bean leaf disk assessed as ovicidal at 62.5 ppm measured after 7 days. Particulars: foliar, 168 h.
The test system of experiment [3] is Tetranychus urticae. Kind of experiment: Insecticidal activity against Tetranychus urticae (two-spotted spider mite) in compound treated kidney bean leaf disk assessed as mortality at 62.5 ppm measured after 7 days. The settings on record: foliar, 168 h.
Experiment [4] relates to Tetranychus urticae. Kind of experiment: Insecticidal activity against Tetranychus urticae (two-spotted spider mite) eggs in compound treated kidney bean leaf disk assessed as ovicidal at 3.1 ppm measured after 7 days. The settings on record: foliar, 168 h.
Experiment [5] deals with Tetranychus urticae. Kind of experiment: Insecticidal activity against Tetranychus urticae (two-spotted spider mite) in compound treated kidney bean leaf disk assessed as mortality at 3.1 ppm measured after 7 days. Particulars: foliar, 168 h.
Experiment [6] concerns Nephotettix cincticeps. In words: Insecticidal activity against Nephotettix cincticeps (green rice leafhopper) third instar larvae in compound treated rice seedlings assessed as mortality at 3.1 ppm measured after 7 days. The settings on record: 168 h.
In experiment [7] the test system is Tetranychus urticae. Kind of experiment: Insecticidal activity against Tetranychus urticae (two-spotted spider mite) in compound treated kidney bean leaf disk assessed as mortality at 500 ppm measured after 7 days. The settings on record: foliar, 168 h.
Experiment [8] deals with Tetranychus urticae. Kind of experiment: Insecticidal activity against Tetranychus urticae (two-spotted spider mite) eggs in compound treated kidney bean leaf disk assessed as ovicidal at 500 ppm measured after 7 days. Particulars: foliar, 168 h.
The test system of experiment [9] is Nephotettix cincticeps. In words: Insecticidal activity against Nephotettix cincticeps (green rice leafhopper) third instar larvae in compound treated rice seedlings assessed as mortality at 500 ppm measured after 7 days. The settings on record: 168 h.
Experiment [10] concerns Tetranychus urticae. In words: Insecticidal activity against Tetranychus urticae (two-spotted spider mite) in compound treated kidney bean leaf disk assessed as mortality at 1.3 ppm measured after 7 days. Particulars: foliar, 168 h.
For experiment [11], the system named is Nephotettix cincticeps. In words: Insecticidal activity against Nephotettix cincticeps (green rice leafhopper) third instar larvae in compound treated rice seedlings assessed as mortality at 1.3 ppm measured after 7 days. The settings on record: 168 h.
Experiment [12] concerns Tetranychus urticae. Kind of experiment: Insecticidal activity against Tetranychus urticae (two-spotted spider mite) eggs in compound treated kidney bean leaf disk assessed as ovicidal at 1.3 ppm measured after 7 days. The settings on record: foliar, 168 h.

We go through 31 compounds from ChEMBL document CHEMBL3045054, “Synthesis and insecticidal activity of novel 1-alkyl-3-sulfonyloxypyrazole-4-carboxamide derivatives” (2010).

For orientation: mortality means the share of the test organisms that died.

Take `CNC(=O)c1cn(C)nc1OS(C)(=O)=O`: the results for the mortality at 62.5 ppm in experiment [1], in experiment [2] and in [3] were 20%, 4% and 19%, respectively.

On to `CCCC(C)(C#N)NC(=O)c1cn(C)nc1OS(C)(=O)=O` (stereo not given), for which the mortality at 62.5 ppm in experiment [1] is 100%; in experiment [2], 67%; in [3], 64%. Moreover, the mortality at 3.1 ppm is 3% in [4], 8% in experiment [5] and 81% in experiment [6].

On to `Cn1cc(C(=O)NC(C)(C)C)c(OS(C)(=O)=O)n1`, for which the mortality at 62.5 ppm in experiment [1] came out at 100%; in experiment [2] it was 3%; in [3], 23%. Besides, the mortality at 3.1 ppm in experiment [6] amounted to 80%.

On to `Cn1cc(C(=O)NCC(F)(F)F)c(OS(C)(=O)=O)n1`, for which the results for the mortality at 62.5 ppm in experiment [1], in experiment [2] and in experiment [3] were 22%, 61% and 86%, respectively.

For the compound `CC(C)NC(=O)c1cn(C)nc1OS(=O)(=O)C(F)(F)F`, the mortality at 62.5 ppm in experiment [1] amounted to 24%; in experiment [2], 10%; in experiment [3], 15%.

For the compound `CCCC(C#N)(CC)NC(=O)c1cn(C)nc1OS(C)(=O)=O` (stereo not given), the results for the mortality at 62.5 ppm in experiment [1], in [2] and in experiment [3] were 22%, 39% and 15%, respectively.

On to `CCCCCC(C)NC(=O)c1cn(C)nc1OS(C)(=O)=O` (stereo not given), for which the mortality at 62.5 ppm in experiment [1] worked out at 94%; in [2] it was 6%; in experiment [3], 29%. Moreover, in experiment [6], the mortality at 3.1 ppm turned out to be 8%.

Turning to `CCCn1cc(C(=O)NC(C)C)c(OS(C)(=O)=O)n1`, the figures for the mortality at 62.5 ppm in experiment [1], in experiment [2] and in [3] were 100%, 26% and 36%, respectively. In experiment [6], the mortality at 3.1 ppm came out at 76%.

In the case of `CC(C)NC(=O)c1cn(C)nc1OS(=O)(=O)CCl`, the mortality at 62.5 ppm in experiment [1] was determined as 100%; in experiment [2] it was 13%; in experiment [3], 15%. Moreover, the mortality at 3.1 ppm in [6] worked out at 10%.

`CCS(=O)(=O)Oc1nn(C(C)(C)C)cc1C(=O)NC(C)C`: the mortality at 500 ppm in experiment [7] stood at 50%; in experiment [8] it was 0%; in [9], 0%.

As to `CC(C)NC(=O)c1cn(CCF)nc1OS(C)(=O)=O`, the mortality at 62.5 ppm came out at 100% in experiment [1], 69% in [2] and 50% in experiment [3]. The mortality at 3.1 ppm in [6] turned out to be 43%.

As to `CCC(C#N)(CC)NC(=O)c1cn(C)nc1OS(C)(=O)=O`, the mortality at 62.5 ppm in experiment [1], in [2] and in experiment [3] was 100% throughout. The mortality at 3.1 ppm in experiment [4] is 100%; in [5] it was 100%; in [6], 55%.

`CC(C)NC(=O)c1cn(C)nc1OS(C)(=O)=O`: the mortality at 1.3 ppm in experiment [10] turned out to be 16%; in experiment [11], 74%; in experiment [12] it was 22%. For the same compound, the mortality at 62.5 ppm in [1] came to 100%; in experiment [2] it was 37%; in [3], 100%. For the same compound, the mortality at 3.1 ppm was 23% in [4], 17% in [5] and 100% in [6].

As to `CCS(=O)(=O)Oc1nn(C)cc1C(=O)NC(C)C`, the figures for the mortality at 62.5 ppm in [1], in [2] and in experiment [3] were 100%, 2% and 14%, respectively. In addition, the mortality at 3.1 ppm in [6] was determined as 55%.

For the compound `CC(C)CNC(=O)c1cn(C)nc1OS(C)(=O)=O`, the mortality at 1.3 ppm in [11] was 97%. Further, the figures for the mortality at 62.5 ppm in experiment [1], in experiment [2] and in experiment [3] were 100%, 12% and 89%, respectively. Moreover, the mortality at 3.1 ppm in experiment [6] came to 100%.

On to `CC(C)NC(=O)c1cn(C)nc1OS(=O)(=O)N(C)C`, for which the mortality at 62.5 ppm in experiment [1], in experiment [2] and in experiment [3] was 0% each time.

For `CC(C)NC(=O)c1cn(CCCl)nc1OS(C)(=O)=O`, the results for the mortality at 62.5 ppm in [1], in experiment [2] and in experiment [3] were 100%, 34% and 80%, respectively. Moreover, the mortality at 3.1 ppm worked out at 30% in [4], 15% in [5] and 96% in experiment [6].

Turning to `CCn1cc(C(=O)NC(C)C)c(OS(C)(=O)=O)n1`, the results for the mortality at 62.5 ppm in [1], in [2] and in [3] were 100%, 13% and 51%, respectively. For the same compound, the mortality at 3.1 ppm in experiment [6] came to 100%.

`CC(NC(=O)c1cn(C)nc1OS(C)(=O)=O)c1ccccc1` (stereo not given): the mortality at 62.5 ppm is 81% in experiment [1], 0% in [2] and 0% in experiment [3].

In the case of `CCCC(C)NC(=O)c1cn(C)nc1OS(C)(=O)=O` (stereo not given), the mortality at 62.5 ppm in experiment [1] amounted to 100%; in experiment [2] it was 44%; in [3], 94%. Also, the mortality at 3.1 ppm in experiment [4] worked out at 6%; in experiment [5], 7%; in [6], 95%.

In the case of `Cn1cc(C(=O)NC2(C#N)CCCCC2)c(OS(C)(=O)=O)n1`, the mortality at 62.5 ppm in experiment [1] is 50%; in [2], 20%; in experiment [3] it was 93%.

As to `CC(C)NC(=O)c1cn(C(C)C)nc1OS(C)(=O)=O`, the mortality at 62.5 ppm in [1] was found to be 100%; in [2] it was 47%; in [3] it was 50%. Also, the mortality at 3.1 ppm in [6] amounted to 74%.

Take `Cn1cc(C(=O)NC2CC2)c(OS(C)(=O)=O)n1`: the mortality at 62.5 ppm in [1] was 97%; in experiment [2], 9%; in [3] it was 21%. In addition, in experiment [6], the mortality at 3.1 ppm is 10%.

In the case of `CCC(CC)NC(=O)c1cn(C)nc1OS(C)(=O)=O`, the mortality at 62.5 ppm in experiment [1] was found to be 100%; in [2], 19%; in [3] it was 100%. Further, the mortality at 3.1 ppm in [5] was determined as 10%; in [6], 65%.

On to `Cn1cc(C(=O)NCC#N)c(OS(C)(=O)=O)n1`, for which the figures for the mortality at 62.5 ppm in experiment [1], in experiment [2] and in experiment [3] were 47%, 100% and 100%, respectively. The mortality at 3.1 ppm in experiment [4] and in experiment [5] was 8% each time.

In the case of `CCNC(=O)c1cn(C)nc1OS(C)(=O)=O`, the mortality at 62.5 ppm in experiment [1], in experiment [2] and in [3] was 0% each time.

`CC(C)C(C)(C#N)NC(=O)c1cn(C)nc1OS(C)(=O)=O` (stereo not given): the mortality at 62.5 ppm in experiment [1], in experiment [2] and in [3] was 100% throughout. The mortality at 3.1 ppm in [4] is 26%; in experiment [5], 11%; in experiment [6] it was 32%.

Take `CCCNC(=O)c1cn(C)nc1OS(C)(=O)=O`: the mortality at 62.5 ppm in experiment [1] was 87%; in [2], 7%; in experiment [3], 25%.

With `CCC(C#N)NC(=O)c1cn(C)nc1OS(C)(=O)=O` (stereo not given), the mortality at 62.5 ppm was determined as 100% in experiment [1], 94% in experiment [2] and 100% in [3]. The mortality at 3.1 ppm in experiment [4] came to 3%; in [5], 7%; in experiment [6], 10%.

`CCC(C)(C#N)NC(=O)c1cn(C)nc1OS(C)(=O)=O` (stereo not given): the mortality at 62.5 ppm in [1], in experiment [2] and in experiment [3] was 100% throughout. For the same compound, the mortality at 3.1 ppm in experiment [4] came out at 9%; in experiment [5], 15%; in experiment [6], 88%.

Consider `CC(C)N(C)C(=O)c1cn(C)nc1OS(C)(=O)=O`, for which the mortality at 62.5 ppm stood at 41% in experiment [1], 5% in experiment [2] and 10% in [3].
